Source: ChEMBL document CHEMBL3045117, “Synthesis, crystal structures, insecticidal activities, and structure--activity relationships of novel N'-tert-Butyl-N'-substituted-benzoyl-N-[di(octa)hydro]benzofuran{(2,3-dihydro)benzo[1,3]([1,4])dioxine}carbohydrazide derivatives” (2011)

Experiments:
Assay type in all cases: functional
Mythimna separata [1] = assay: Stomach toxicity against third-instar Mythimna separata (Oriental armyworm) in compound treated fresh corn leaves assessed as insecticidal activity at 200 mg/L measured after 4 days by leaf-dip method
Mythimna separata [2] = assay: Stomach toxicity against third-instar Mythimna separata (Oriental armyworm) in compound treated fresh corn leaves assessed as insecticidal activity at 25 mg/L measured after 4 days by leaf-dip method
Mythimna separata [3] = assay: Stomach toxicity against third-instar Mythimna separata (Oriental armyworm) in compound treated fresh corn leaves assessed as insecticidal activity at 10 mg/L measured after 4 days by leaf-dip method
Mythimna separata [4] = assay: Stomach toxicity against third-instar Mythimna separata (Oriental armyworm) in compound treated fresh corn leaves assessed as insecticidal activity at 50 mg/L measured after 4 days by leaf-dip method
Mythimna separata [5] = assay: Stomach toxicity against third-instar Mythimna separata (Oriental armyworm) in compound treated fresh corn leaves assessed as insecticidal activity at 100 mg/L measured after 4 days by leaf-dip method
Spodoptera exigua [6] = assay: Stomach toxicity against third-instar Spodoptera exigua in compound treated fresh cabbage leaves assessed as insecticidal activity at 50 mg/L measured after 3 days by leaf-dip method
Ostrinia nubilalis = assay: Stomach toxicity against third-instar Ostrinia nubilalis (European corn borer) in compound treated fresh corn leaves assessed as insecticidal activity at 200 mg/L measured after 4 days by leaf-dip method
Plutella xylostella [7] = assay: Stomach toxicity against third-instar Plutella xylostella (diamondback moth) in compound treated fresh cabbage leaves assessed as insecticidal activity at 50 mg/L measured after 3 days by leaf-dip method
Plutella xylostella [8] = assay: Stomach toxicity against third-instar Plutella xylostella (diamondback moth) in compound treated fresh cabbage leaves assessed as insecticidal activity at 100 mg/L measured after 3 days by leaf-dip method
Spodoptera exigua [9] = assay: Stomach toxicity against third-instar Spodoptera exigua in compound treated fresh cabbage leaves assessed as insecticidal activity at 10 mg/L measured after 3 days by leaf-dip method
Spodoptera exigua [10] = assay: Stomach toxicity against third-instar Spodoptera exigua in compound treated fresh cabbage leaves assessed as insecticidal activity at 200 mg/L measured after 3 days by leaf-dip method
Spodoptera exigua [11] = assay: Stomach toxicity against third-instar Spodoptera exigua in compound treated fresh cabbage leaves assessed as insecticidal activity at 100 mg/L measured after 3 days by leaf-dip method
Plutella xylostella [12] = assay: Stomach toxicity against third-instar Plutella xylostella (diamondback moth) in compound treated fresh cabbage leaves assessed as insecticidal activity at 200 mg/L measured after 3 days by leaf-dip method

| SMILES | Activity (Mythimna separata [1]) | Activity (Mythimna separata [2]) | Activity (Mythimna separata [3]) | Activity (Mythimna separata [4]) | Activity (Mythimna separata [5]) | Activity (Spodoptera exigua [6]) | Activity (Ostrinia nubilalis) | Activity (Plutella xylostella [7]) | Activity (Plutella xylostella [8]) | Activity (Spodoptera exigua [9]) | Activity (Spodoptera exigua [10]) | Activity (Spodoptera exigua [11]) | Activity (Plutella xylostella [12]) |
| --- | --- | --- | --- | --- | --- | --- | --- | --- | --- | --- | --- | --- | --- |
| Cc1cc2c(C(=O)NN(C(=O)c3ccc(Cl)cc3)C(C)(C)C)cccc2o1 | 0% |  |  |  |  |  |  |  |  |  |  |  |  |
| Cc1cc(C)cc(C(=O)N(NC(=O)c2ccccc2)C(C)(C)C)c1 | 100% | 100% | 80% | 100% | 100% |  |  |  |  |  |  |  |  |
| Cc1cc(C)cc(C(=O)N(NC(=O)c2ccc3cc(C)oc3c2)C(C)(C)C)c1 | 100% | 100% | 50% | 100% | 100% | 100% | 40% | 70% | 100% | 90% | 100% | 100% | 100% |
| Cc1cc(C)cc(C(=O)N(NC(=O)c2ccc3c(c2)OC(C)C3)C(C)(C)C)c1 (configuration not stated) | 100% | 100% | 70% | 100% | 100% | 100% | 60% |  |  | 90% | 100% | 100% | 80% |
| Cc1cc2c(C(=O)NN(C(=O)c3ccccc3Cl)C(C)(C)C)cccc2o1 | 0% |  |  |  |  |  |  |  |  |  |  |  |  |
| Cc1cc2c(C(=O)NN(C(=O)c3cccc(Cl)c3)C(C)(C)C)cccc2o1 | 0% |  |  |  |  |  |  |  |  |  |  |  |  |
| Cc1cc2c(C(=O)NN(C(=O)c3cc(Cl)cc(Cl)c3)C(C)(C)C)cccc2o1 | 0% |  |  |  |  |  |  |  |  |  |  |  |  |
| Cc1cc2c(C(=O)NN(C(=O)c3cc([N+](=O)[O-])cc([N+](=O)[O-])c3)C(C)(C)C)cccc2o1 | 0% |  |  |  |  |  |  |  |  |  |  |  |  |
| Cc1cc(C)cc(C(=O)N(NC(=O)c2cccc3oc(C)cc23)C(C)(C)C)c1 | 80% |  |  |  |  |  | 40% |  |  |  | 70% |  | 50% |
| Cc1cc(C)cc(C(=O)N(NC(=O)c2cccc3c2CC(C)O3)C(C)(C)C)c1 (configuration not stated) | 100% | 100% | 60% | 100% | 100% | 100% | 70% | 50% | 100% | 80% | 100% | 100% | 100% |
| Cc1cc(C)cc(C(=O)N(NC(=O)c2cccc3c2OCO3)C(C)(C)C)c1 | 100% | 30% |  | 100% | 100% |  | 30% |  |  |  | 100% | 80% | 0% |
| Cc1cc(C)cc(C(=O)N(NC(=O)c2cccc3c2OCCO3)C(C)(C)C)c1 | 0% |  |  |  |  |  |  |  |  |  |  |  |  |
| Cc1cc(C)cc(C(=O)N(NC(=O)c2cccc3c2CCCO3)C(C)(C)C)c1 | 30% |  |  |  |  |  | 0% |  |  |  | 0% |  | 0% |
| Cc1cc(C)cc(C(=O)N(NC(=O)C2CCCC3OC(C)CC32)C(C)(C)C)c1 (configuration not stated) | 0% |  |  |  |  |  |  |  |  |  |  |  |  |
| Cc1cc(C)cc(C(=O)N(NC(=O)C2CCCCC2)C(C)(C)C)c1 | 100% |  |  | 20% | 100% |  |  |  |  |  |  |  |  |
| Cc1cc(C)cc(C(=O)N(NC(=O)c2ccc3c(c2C)CCCO3)C(C)(C)C)c1 [CHROMAFENOZIDE] | 100% | 100% | 100% | 100% | 100% | 100% | 100% | 100% | 100% | 100% | 100% | 100% | 100% |
| Cc1cc(C)cc(C(=O)N(NC(=O)c2ccc3c(c2C)OC(C)C3)C(C)(C)C)c1 (configuration not stated) [FUXIAN] | 100% | 100% | 100% | 100% | 100% | 100% | 100% | 100% | 100% | 90% | 100% | 100% | 100% |
| COc1cccc(C(=O)NN(C(=O)c2cc(C)cc(C)c2)C(C)(C)C)c1C [METHOXYFENOZIDE] | 100% | 100% | 100% | 100% | 100% | 100% | 100% | 100% | 100% | 100% | 100% | 100% | 100% |
